# Results as given in patent US20100317690A1, “TREATMENT OF PROTEIN FOLDING DISORDERS” (SUMMIT CORPORATION PLC, priority 2007, published 2010).
# Target: T1, Jack bean α-D-mannosidase (Canavalia ensiformis, UniProt C0HJB3)
# T1 construct: purchased Sigma M7257
# T1 sequence (C0HJB3 1-981): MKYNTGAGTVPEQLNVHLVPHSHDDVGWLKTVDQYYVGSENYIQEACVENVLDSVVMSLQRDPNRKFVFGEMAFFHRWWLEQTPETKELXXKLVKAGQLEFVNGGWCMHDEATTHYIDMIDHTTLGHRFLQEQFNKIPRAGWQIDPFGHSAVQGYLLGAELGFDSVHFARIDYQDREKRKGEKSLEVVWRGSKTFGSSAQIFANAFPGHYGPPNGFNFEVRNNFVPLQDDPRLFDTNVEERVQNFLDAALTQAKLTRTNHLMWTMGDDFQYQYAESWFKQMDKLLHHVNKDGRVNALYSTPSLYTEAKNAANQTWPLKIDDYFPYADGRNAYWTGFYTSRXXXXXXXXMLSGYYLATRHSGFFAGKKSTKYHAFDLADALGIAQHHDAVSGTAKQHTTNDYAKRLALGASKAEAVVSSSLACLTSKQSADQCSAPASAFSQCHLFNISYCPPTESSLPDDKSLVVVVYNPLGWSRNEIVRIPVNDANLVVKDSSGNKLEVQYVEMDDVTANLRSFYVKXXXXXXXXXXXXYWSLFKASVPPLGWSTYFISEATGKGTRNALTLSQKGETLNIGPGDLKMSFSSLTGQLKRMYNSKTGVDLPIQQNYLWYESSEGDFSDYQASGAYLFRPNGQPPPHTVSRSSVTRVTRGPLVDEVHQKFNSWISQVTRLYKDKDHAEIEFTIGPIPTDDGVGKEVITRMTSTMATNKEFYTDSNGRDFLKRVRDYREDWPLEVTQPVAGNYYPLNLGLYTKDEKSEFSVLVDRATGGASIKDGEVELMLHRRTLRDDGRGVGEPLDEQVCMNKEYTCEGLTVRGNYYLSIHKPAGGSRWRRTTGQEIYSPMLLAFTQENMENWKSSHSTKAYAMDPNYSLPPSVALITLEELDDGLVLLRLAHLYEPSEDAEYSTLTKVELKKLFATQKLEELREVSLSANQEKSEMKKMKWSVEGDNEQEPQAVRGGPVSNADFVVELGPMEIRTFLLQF
# Assay: Jack bean α-D-mannosidase activity assay (PNP-α-D-mannopyranoside substrate)
# Format: biochemical
# Method: Fresh solutions had been prepared a day or so earlier of 0.2M Mcllvane buffer at pH 4.5 and 5 mM PNP-α-D-mannopyranoside (Sigma, N2127) in pH 4.5 buffer. Also prepared was a dilution of Jack bean α-D-mannosidase enzyme (Sigma, M7257, 22 Units/mg, 6.2 mg/ml.) at 0.6 Units/ml in pH 4.5 buffer.
# The incubation mixture consisted of 10 μl enzyme solution, 10 μl of 1 mg/ml aqueous inhibitor solution and 50 μl of 5 mM substrate made up in buffer at the optimum pH for the enzyme. The reactions were stopped by addition of 70 μl 0.4M glycine (pH 10.4) during the exponential phase of the reaction, which had been determined at the beginning using uninhibited assays in which water replaced inhibitor. Final absorbances were read at 405 nm using a Versamax microplate reader (Molecular Devices). Assays were carried out in triplicate, and the values given are means of the three replicates per assay. Results were expressed as a percentage of uninhibited assays in which water replaced inhibitor.
smiles,measurement,setting,value
O[C@H]1[C@H]2[C@H](O)CCCN2C[C@H]1O [swainsonine],inhibition of the promoted activity,activity promoted by imino sugars with a mannose configuration,total inhibition
same,promotion of the mannosidase,any concentration tested,does not cause promotion
same,inhibition,"swainsonine alone, or mixed with an equal concentration of the selected stimulating compound",100%
